In patent US5254582A, “Antitumor compositions and methods” (Eli Lilly and Company, priority 1992, dated 1993):

How the values were obtained:
[1] = tested on: HXGC3 human colon adenocarcinoma xenograft; assay: percent inhibition of tumor growth and mortality in mice bearing HXGC3 human colon adenocarcinoma xenografts, oral; assay type: in vivo; conditions: daily for 10 days
Description: (§1) Two of the tumor models used for showing the antineoplastic activity of the sulfonylurea of this invention were the human colon xenografts, HXGC3 and VRC5. J. A. Houghton and D. M. Taylor, British Journal of Cancer, 37:213-223 (1978). These tumors were obtained from St. Jude's Children's Research Hospital and have been widely used as human tumor models.
(§2) First passage tumors were stored in liquid nitrogen, using standard techniques. The transplanted tumor was reestablished from the Tumor Bank every six months or as needed. The tumor was maintained by serial passage twice weekly in nude mice.
(§3) In the procedures utilized here, the tumor was removed from passage animals and minced into 1- to 3-mm cubic fragments using sterile techniques. Tumor pieces were checked for sterility using both Antibiotic medium 1 and Brain Heart Infusion (Difco, Detroit, Mi.). The tumor pieces were implanted into the recipient CDl Nu/Nu mice subcutaneously in an axillary site by trochar.
(§4) Drug therapy on the appropriate schedule was initiated seven days after tumor implantation. The compound being tested was mixed with 2.5% Emulphor EL620 from GAF Corporation (1:40 dilution in 0.9% saline). The total dosage volume for each administration was 0.5 mL. All animals were weighed at the beginning and end of administration of the subject compounds. Food and water were provided ad libitum.
(§5) Each control group and each dosage level of the treated groups consisted of 10 mice selected at random from the pool of implanted animals. The formulations were administered orally by gavage with the use of an 18-gauge needle. Compounds were dosed daily for 10 days.
(§6) The tumor was measured five days after treatment ended with two dimensional measurements (width and length) of the tumor taken using digital electronic calipers interfaced to a microcomputer. J. F. Worzalla, et al., Investigational New Drugs, 8:241-251 (1990). Tumor weights were calculated from these measurements using the following formula:
(§7) Tumor weight (mg)=[tumor length (mm)×[tumor width (mm)]^2 ]
(§8) At least one control group of an equal number of mice was treated with the same volume of 2.5% Emulphor only. The percent inhibition is determined by subtracting the ratio of the mean tumor size of the test group relative to the control group from one and multiplying the result by 100.
(§9) The results of several experiments in mice bearing the HXGC3 and VRC5 human colon adenocarcinomas when the instant compounds were administered orally are provided in Table I. In the Table, column 1 describes the particular human tumor xenograft being studied; column 2 gives the dosage level of the compound of Formula I in milligrams per kilogram of body weight; column 3 describes the percent inhibition of tumor growth; and column 4 tallies the number of mice which died during the course of the experiment relative to the total number of animals in the group.

[2] = tested on: VRC5 human colon adenocarcinoma xenograft; assay: percent inhibition of tumor growth and mortality in mice bearing VRC5 human colon adenocarcinoma xenografts, oral; assay type: in vivo; conditions: daily for 10 days
Description: as §1, §2, §3, §4, §5, §6, §7, §8, §9

[3] = tested on: transplanted human tumors; assay: activity against transplanted human tumors in mice bearing different xenograft tumors; assay type: in vivo
Description: as §1

[4] = toxicological study in male Fischer 344 rats, morphological, hematological and pathological studies; assay type: in vivo, rat (male Fischer 344); conditions: rat, 65 to 1000 mg/kg, oral gavage, daily for 14 days
Protocol: For these experiments thirty male Fischer 344 rats were administered varying dosages of a formulation containing the compound of Formula I. These formulations contained between 65 and 1000 mg of the active ingredient per kilogram of body weight of the rat, in combination with a suitable excipient, usually containing 10% acacia. The compounds were administered orally by gavage. The compounds were dosed daily for 14 days. All animals were weighed at the beginning and end of administration of the subject compounds. Food and water were provided ad libitum.
Upon completion of the testing regimen, morphological and hematological studies were performed.

[5] = cited from earlier work
[6] = phase I clinical studies; cited from earlier work
[7] = in vivo; cited from earlier work

**Q.** With O=C(Nc1ccc(Cl)c(Cl)c1)NS(=O)(=O)c1ccc2c(c1)CCO2 [compound of Formula I, N-[[(3,4-dichlorophenyl)amino]carbonyl]-2,3-dihydrobenzofuran-5-sulfonamide] as the compound, how does the “Percent Inhibition of tumor growth” value ([1]; 150 mg/kg) read?
**A.** 81%

**Q.** What about the “Toxic/Total (mice which died relative to total number in group)” value ([1]; 150 mg/kg) of the same compound?
**A.** 0/10

**Q.** What about the “Percent Inhibition of tumor growth” value ([1]; 300 mg/kg) of the same compound?
**A.** 98%

**Q.** And the “Toxic/Total (mice which died relative to total number in group)” value ([1]; 300 mg/kg)?
**A.** 0/10

**Q.** What about the “Percent Inhibition of tumor growth” value ([1]; 600 mg/kg) of the same compound?
**A.** 98%

**Q.** What about the “Toxic/Total (mice which died relative to total number in group)” value ([1]; 600 mg/kg) of the same compound?
**A.** 0/10

**Q.** What about the “Percent Inhibition of tumor growth” value ([1]; 1200 mg/kg) of the same compound?
**A.** 99%

**Q.** What about the “Toxic/Total (mice which died relative to total number in group)” value ([1]; 1200 mg/kg) of the same compound?
**A.** 0/10

**Q.** And the “Percent Inhibition of tumor growth” value ([2]; 150 mg/kg)?
**A.** 97%

**Q.** What about the “Toxic/Total (mice which died relative to total number in group)” value ([2]; 150 mg/kg) of the same compound?
**A.** 0/10

**Q.** And the “Percent Inhibition of tumor growth” value ([2]; 300 mg/kg)?
**A.** 98%

**Q.** And the “Toxic/Total (mice which died relative to total number in group)” value ([2]; 300 mg/kg)?
**A.** 0/10

**Q.** What about the “Percent Inhibition of tumor growth” value ([2]; 600 mg/kg) of the same compound?
**A.** 100%

**Q.** What about the “Toxic/Total (mice which died relative to total number in group)” value ([2]; 600 mg/kg) of the same compound?
**A.** 0/10

**Q.** What about the “Percent Inhibition of tumor growth” value ([2]; 1200 mg/kg) of the same compound?
**A.** 100%

**Q.** And the “Toxic/Total (mice which died relative to total number in group)” value ([2]; 1200 mg/kg)?
**A.** 0/10

**Q.** What about the therapeutic index ([3]; in vivo) of the same compound?
**A.** high therapeutic index

**Q.** What about the “activity against transplanted human tumors in vivo” value ([3]; mice bearing different xenograft tumors) of the same compound?
**A.** active against transplanted human tumors in vivo

**Q.** And the hemolytic anemia [4]?
**A.** absence of hemolytic anemia

**Q.** And the pathological tissue effects [4]?
**A.** effectiveness against tissues with a high mitotic index, including lymph nodes, thymus, gut, testis, and bone marrow

**Q.** What about the unexpected tissue changes [4] of the same compound?
**A.** Unexpected tissue changes were not observed

**Q.** For O=C(Nc1ccc(Cl)cc1)NS(=O)(=O)c1ccc2c(c1)CCC2 [sulofenur, N-(indan-5-sulfonyl)-N'-(4-chlorophenyl)urea], which main urinary metabolites ([5]; animal trials, urine) is on record?
**A.** mono-hydroxy- and mono-ketoindanyl metabolites

**Q.** And the adsorption and metabolism ([5]; mice, rats, dogs, and monkeys)?
**A.** good adsorption and extensive metabolism

**Q.** And the “major metabolites in patients” value [6]?
**A.** 1-hydroxy- and 1-ketoindansulfonylureas

**Q.** What about the dose-limiting toxicity [7] of the same compound?
**A.** hemolytic anemia
